For one experiment, the target named is JAK2 (Homo sapiens (Human), UniProt O60674). Nature of the experiment: Jak Biochemical HTRF Assay, JAK2. To be noted: HTRF biochemical assay, GST-tagged catalytic domain; top concentration tested […]. The source says: (§1) Jak Biochemical HTRF Assay Protocol
(§2) Subsequent reagent additions employed an Agilent Bravo.
A general note: TR-FRET usually uses a lanthanide donor and a delayed reading to cut background.

The next experiment concerns the target JAK1 (Homo sapiens (Human), UniProt P23458). In words: Jak Biochemical HTRF Assay, JAK1. Conditions: HTRF biochemical assay, GST-tagged catalytic domain; top concentration tested […]; read-out: JAK1 IC50.
From the text: as §1, §2

JAK1, sequence (P23458 875-1153): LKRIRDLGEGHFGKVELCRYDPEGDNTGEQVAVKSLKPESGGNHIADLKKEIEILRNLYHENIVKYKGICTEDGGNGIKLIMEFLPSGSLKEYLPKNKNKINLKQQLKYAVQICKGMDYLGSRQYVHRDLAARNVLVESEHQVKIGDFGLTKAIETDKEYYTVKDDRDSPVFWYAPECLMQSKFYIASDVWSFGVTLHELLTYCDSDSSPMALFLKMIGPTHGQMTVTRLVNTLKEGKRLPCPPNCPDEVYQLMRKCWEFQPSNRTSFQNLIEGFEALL
JAK2, sequence (O60674 849-1124): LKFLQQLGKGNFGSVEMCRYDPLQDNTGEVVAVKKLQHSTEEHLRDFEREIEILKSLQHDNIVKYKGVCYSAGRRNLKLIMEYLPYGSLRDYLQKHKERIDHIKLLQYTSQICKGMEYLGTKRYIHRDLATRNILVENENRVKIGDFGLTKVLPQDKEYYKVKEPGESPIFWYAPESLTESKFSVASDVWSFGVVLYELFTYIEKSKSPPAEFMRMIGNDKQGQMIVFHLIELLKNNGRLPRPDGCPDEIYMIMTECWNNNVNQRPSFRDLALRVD

Regarding `CC(C)(C)OC(=O)N1CCC(CC#N)(n2cc(C(N)=O)c(Nc3ccnc(CO)c3)n2)CC1` [Example 9-18, tert-butyl 4-(4-carbamoyl-3-{[2-(hydroxymethyl)pyridin-4-yl]amino}-1H-pyrazol-1-yl)-4-(cyanomethyl)piperidine-1-carboxylate], the IC50 (as a rule, the concentration that inhibits the measured activity by half) at JAK2 turned out to be 101 nM; at JAK1 it was 6 nM.

As to `N#CCC1(n2cc(C(N)=O)c(Nc3ccnc(F)c3)n2)CCN(Cc2cccnn2)CC1` [Example 22-35, 1-[4-(cyanomethyl)-1-(pyridazin-3-ylmethyl)piperidin-4-yl]-3-[(2-fluoropyridin-4-yl)amino]-1H-pyrazole-4-carboxamide], the IC50 at JAK2 stood at 145 nM; at JAK1, 6 nM.

With `CC(C)(C)OC(=O)N1CCC(CC#N)(n2cc(C(N)=O)c(Nc3cccc(-c4cccc(Cl)c4)c3)n2)CC1` [Example 15-8, tert-butyl 4-{4-carbamoyl-3-[(3′-chlorobiphenyl-3-yl)amino]-1H-pyrazol-1-yl}-4-(cyanomethyl)piperidine-1-carboxylate], the IC50 on JAK2 is 1480 nM; on JAK1, 161 nM.

As to `N#CCC1(n2cc(C(N)=O)c(Nc3ccc(F)cc3)n2)CCN(C(=O)OCC(F)F)CC1` [Example 30-7, 2,2-difluoroethyl 4-(4-carbamoyl-3-(4-fluorophenylamino)-1H-pyrazol-1-yl)-4-(cyanomethyl)piperidine-1-carboxylate], the IC50 against JAK2 was determined as 9 nM; on JAK1, 0.5 nM.

Turning to `N#CCC1(n2cc(C(N)=O)c(Nc3ccnc(F)c3)n2)CCC(NCc2ccccc2F)CC1` (stereo not drawn) [Example 41-11, Cis or trans 1-{1-(cyanomethyl)-4-[(2-fluorobenzyl)amino]cyclohexyl}-3-[(2-fluoropyridin-4-yl)amino]-1H-pyrazole-4-carboxamide], the IC50 against JAK2 is 2 nM; on JAK1, 0.08 nM.

Turning to `N#CCC1(n2cc(C(N)=O)c(Nc3ccccc3)n2)CCN(Cc2cccnc2)CC1` [Example 21-2, 1-[4-(cyanomethyl)-1-(pyridin-3-ylmethyl)piperidin-4-yl]-3-(phenylamino)-1H-pyrazole-4-carboxamide], the IC50 at JAK2 amounted to 11 nM; on JAK1, 3 nM.

For the molecule `COc1ccc(NC(=O)N2CC(CC#N)(n3cc(C(N)=O)c(Nc4ccccc4)n3)C2)c(C)c1` [Example 38-36, 1-{3-(cyanomethyl)-1-[(4-methoxy-2-methylphenyl)carbamoyl]azetidin-3-yl}-3-(phenylamino)-1H-pyrazole-4-carboxamide], the IC50 on JAK2 came to 233 nM; on JAK1, 15 nM.

As to `N#CCC1(n2cc(C(N)=O)c(Nc3ccccc3)n2)CCN(CC#Cc2ccccc2)CC1` [Example 21-25, 1-[4-(cyanomethyl)-1-(3-phenylprop-2-yn-1-yl)piperidin-4-yl]-3-(phenylamino)-1H-pyrazole-4-carboxamide], the values for the IC50 at JAK2 and at JAK1 were 747 nM and 83 nM, respectively.

Regarding `N#CCC1(n2cc(C(N)=O)c(Nc3ccc(F)cc3)n2)CCC(Nc2ccc(Cl)cc2)CC1` (stereo not drawn) [Example 40-53, Cis or trans 1-{4-[(4-chlorophenyl)amino]-1-(cyanomethyl)cyclohexyl}-3-[(4-fluorophenyl)amino]-1H-pyrazole-4-carboxamide], the IC50 at JAK2 was more than 1500 nM; at JAK1, 400 nM.

As to `N#CCC1(n2cc(C(N)=O)c(Nc3ccc(F)cc3)n2)CCN(c2cc(C(F)(F)F)ccn2)CC1` [Example 3-55, 1-{4-(cyanomethyl)-1-[4-(trifluoromethyl)pyridin-2-yl]piperidin-4-yl}-3-[(4-fluorophenyl)amino]-1H-pyrazole-4-carboxamide], the IC50 stood at 75 nM against JAK2 and 1 nM at JAK1.

With `N#CC[C@@]1(n2cc(C(N)=O)c(Nc3ccnc(F)c3)n2)CCN(C(=O)OCC(F)F)C[C@@H]1F` [Example 46], the 50% inhibitory concentration (IC50) was determined as 0.1 nM on JAK2 and 0.03 nM on JAK1.

With `CC(C)(C)C(=O)N1CC(CC#N)(n2cc(C(N)=O)c(Nc3ccccc3)n2)C1` [Example 34-37, 1-[3-(cyanomethyl)-1-(2,2-dimethylpropanoyl)azetidin-3-yl]-3-(phenylamino)-1H-pyrazole-4-carboxamide], the IC50 was 570 nM at JAK2 and 138 nM on JAK1.

For the molecule `Cc1cc(Nc2nn(C3(CC#N)CCN(C(=O)OC(C)(C)C)CC3)cc2C(N)=O)nc(C)n1` [Example 13-10, tert-butyl 4-(4-carbamoyl-3-(2,6-dimethylpyrimidin-4-ylamino)-1H-pyrazol-1-yl)-4-(cyanomethyl)piperidine-1-carboxylate], the figures for the concentration for half-maximal inhibition (IC50) on JAK2 and on JAK1 were 178 nM and 6 nM, respectively.

Turning to `CC(C)(C)OC(=O)N1CCC(CC#N)(n2cc(C(N)=O)c(Nc3ccc(S(N)(=O)=O)cc3)n2)CC1` [Example 9-20, tert-butyl 4-{4-carbamoyl-3-[(4-sulfamoylphenyl)amino]-1H-pyrazol-1-yl}-4-(cyanomethyl)piperidine-1-carboxylate], the IC50 is 1 nM at JAK2 and 0.1 nM on JAK1.

Turning to `Cc1ccc(NC(=O)N2CC(CC#N)(n3cc(C(N)=O)c(Nc4ccccc4)n3)C2)cc1C` [Example 38-4, 1-{3-(cyanomethyl)-1-[(3,4-dimethylphenyl)carbamoyl]azetidin-3-yl}-3-(phenylamino)-1H-pyrazole-4-carboxamide], the IC50 at JAK2 was determined as 191 nM; at JAK1, 12 nM.

`COC(=O)c1ccccc1CN1CCC(CC#N)(n2cc(C(N)=O)c(Nc3ccccc3)n2)CC1` [Example 21-29, methyl 2-({4-[4-carbamoyl-3-(phenylamino)-1H-pyrazol-1-yl]-4-(cyanomethyl)piperidin-1-yl}methyl)benzoate]: the IC50 came to 400 nM at JAK2 and 21 nM at JAK1.

For the molecule `N#CCC1(n2cc(C(N)=O)c(Nc3ccnc(F)c3)n2)CCC(NCc2ccccc2O)CC1` (stereo not drawn) [Example 41-7, Cis or trans 1-{1-(cyanomethyl)-4-[(2-hydroxybenzyl)amino]cyclohexyl}-3-[(2-fluoropyridin-4-yl)amino]-1H-pyrazole-4-carboxamide], the concentration for half-maximal inhibition (IC50) amounted to 468 nM against JAK2 and 12 nM at JAK1.

With `N#CCC1(n2cc(C(N)=O)c(Nc3ccnc(F)c3)n2)CCC(NCc2ccc(F)cc2F)CC1` (stereo not drawn) [Example 41-4, Cis or trans 1-{1-(cyanomethyl)-4-[(2,4-difluorobenzyl)amino]cyclohexyl}-3-[(2-fluoropyridin-4-yl)amino]-1H-pyrazole-4-carboxamide], the IC50 on JAK2 worked out at 2 nM; at JAK1, 0.09 nM.

As for `N#CCC1(n2cc(C(N)=O)c(Nc3ccc(F)cc3)n2)CCC(N2CCC(O)CC2)CC1` (stereo not drawn) [Example 40-27, Cis or trans 1-[1-(cyanomethyl)-4-(4-hydroxypiperidin-1-yl)cyclohexyl]-3-[(4-fluorophenyl)amino]-1H-pyrazole-4-carboxamide], the IC50 at JAK2 was 273 nM; on JAK1, 8 nM.

For the molecule `Cc1cccc(Nc2nn(C3(CC#N)CCN(C(=O)OC(C)(C)C)CC3)cc2C(N)=O)n1` [Example 13-2, tert-butyl 4-(4-carbamoyl-3-(6-methylpyridin-2-ylamino)-1H-pyrazol-1-yl)-4-(cyanomethyl)piperidine-1-carboxylate], the figures for the IC50 against JAK2 and on JAK1 were 1010 nM and 13 nM, respectively.

(Values after US9328099B2, “Cyanomethylpyrazole carboxamides as janus kinase inhibitors” (Merck Sharp & Dohme Corp., priority 2011, dated 2016).)
